Test results published in US20230348622A1, “USE OF LANCL1 AND ANTIBODIES THEREOF AS A DIAGNOSTIC AND THERAPEUTIC TARGET FOR THE MANAGEMENT AND TREATMENT OF CANCER” (The University of Hong Kong, priority 2022, published 2023).

System: PLC/PRF/5 and MHCC-97L cells
Assay: Intracellular ROS level in LANCL1-KD HCC cells
Type: cell-based, human
Settings: addition of oxidizing agent

CC(C)(C)OO [TBHP, tert-Butyl hydroperoxide]
ROS levels: significantly increased
